Reference: patent US9393221B2, “Methods and compounds for reducing intracellular lipid storage” (THE GENERAL HOSPITAL CORPORATION, priority 2011, dated 2016)
Where a name gives a salt, the structure may show the parent alone. Square brackets hold non-standard residues; d marks the D form. Peptide text beside a SMILES is read from it. * marks the point of attachment. Sta = CC(C)C[C@H](N)[C@@H](O)CC(=O)O; Isovaleryl = CC(C)CC(=O)*

test system: ATGL-KO iPSCs; test: High throughput iPSC chemical screening, Oil Red O (ORO) lipid accumulation; format: cell-based, mouse; settings: not given; on Z-score: test concentration or dose not given here

Structure (SMILES)	Z-score
CNCCC(Oc1ccccc1OC)c1ccccc1 (stereo not drawn) [Nisoxetine hydrochloride]	−1.699

same assay, conditions: glycolytic switch compounds

Structure (SMILES)	Rank in normalized ORO score from screen
O=C(N/N=C/c1ccc([N+](=O)[O-])o1)c1ccc(O)cc1 [Nifuroxazide]	957
[H]/N=C(/N)N/C(=N/[H])NCCc1ccccc1 [Phenformin hydrochloride]	524

same assay, conditions: normalized ORO level vs DMSO-treated cells; compound present during 7 days differentiation, 96-well; negative = decrease in lipid accumulation

Structure (SMILES)	Z-score
O=C(Nc1ccc([N+](=O)[O-])cc1Cl)c1cc(Cl)ccc1O [Niclosamide]	25.4633
Cc1c(NC(=O)c2cccnc2)c(=O)n(-c2ccccc2)n1C [Nifenazone]	0.1131
O=C(O)c1cccnc1Nc1cccc(C(F)(F)F)c1 [Niflumic acid]	−0.6436
O=C(N/N=C/c1ccc([N+](=O)[O-])o1)c1ccc(O)cc1 [Nifuroxazide]	1.279
CC1CS(=O)(=O)CCN1/N=C/c1ccc([N+](=O)[O-])o1 (stereo not drawn) [Nifurtimox]	0.2485
CC1(C)NC(=O)N(c2ccc([N+](=O)[O-])c(C(F)(F)F)c2)C1=O [Nilutamide]	−1.5582
CS(=O)(=O)Nc1ccc([N+](=O)[O-])cc1Oc1ccccc1 [Nimesulide]	−1.0153
COCCOC(=O)C1=C(C)NC(C)=C(C(=O)OC(C)C)C1c1cccc([N+](=O)[O-])c1 (stereo not drawn) [Nimodipine]	−1.6971
O=C1NCCN1c1ncc([N+](=O)[O-])s1 [Niridazole]	1.446
Cl.Cl.c1ccc2c3c([nH]c2c1)C1C2CCC(C4CCCNC42)N1CC3 (stereo not drawn) [Nitrarine dihydrochloride]	−0.8582
CCOC(=O)C1=C(C)NC(C)=C(C(=O)OC)C1c1cccc([N+](=O)[O-])c1 (stereo not drawn) [Nitrendipine]	−1.7782
CCN(CC)CCOC(=O)C1(c2ccc([N+](=O)[O-])cc2)CCCC1.Cl [Nitrocaramiphen hydrochloride]	−1.1255
NC(=O)N/N=C/c1ccc([N+](=O)[O-])o1 [Nitrofural]	−0.866
O=C1CN(/N=C/c2ccc([N+](=O)[O-])o2)C(=O)N1 [Nitrofurantoin]	0.3631
CNC(=C[N+](=O)[O-])NCCSCc1csc(CN(C)C)n1 [Nizatidine]	−0.1369
COC(=O)Nc1nc2ccc(C(=O)c3cccs3)cc2[nH]1 [Nocodazole]	18.0445
CC(=O)O[C@]1(C(C)=O)CC[C@H]2[C@@H]3C=C(C)C4=CC(=O)CC[C@@H]4[C@H]3CC[C@@]21C [Nomegestrol acetate]	1.552
CN1Cc2c(N)cccc2C(c2ccccc2)C1 (stereo not drawn) [Nomifensine maleate]	−1.3149
CNCCC=C1c2ccccc2C=Cc2ccccc21 [Norcyclobenzaprine]	−0.6046
C#C[C@]1(O)CC[C@H]2[C@@H]3CCC4=CC(=O)CC[C@@H]4[C@H]3CC[C@@]21C [Norethindrone]	−0.6688
C#C[C@]1(O)CC[C@H]2[C@@H]3CCC4=C(CCC(=O)C4)[C@H]3CC[C@@]21C [Norethynodrel]	−0.7872
CCn1cc(C(=O)O)c(=O)c2cc(F)c(N3CCNCC3)cc21 [Norfloxacin]	0.6666
C#C[C@]1(O)CC[C@H]2[C@@H]3CCC4=CC(=O)CC[C@@H]4[C@H]3CC[C@@]21CC [Norgestrel-(−)-D]	1.412
CNCCC=C1c2ccccc2CCc2ccccc21 [Nortriptyline hydrochloride]	−1.28

Structure (SMILES)	Z-score
COc1ccc2c(c1OC)C(=O)O[C@@H]2[C@H]1c2c(cc3c(c2OC)OCO3)CCN1C [Noscapine]	0.8948
CO[C@@H]1[C@@H](OC(N)=O)[C@@H](O)[C@H](Oc2ccc3c(O)c(NC(=O)c4ccc(O)c(CC=C(C)C)c4)c(=O)oc3c2C)OC1(C)C [Novobiocin sodium salt]	−1.5591
C[C@@H]1[C@H](O)[C@@H](C)/C=C/C=C/CC/C=C/C=C/C=C/C=C/C(O[C@H]2O[C@H](C)[C@@H](O)[C@H](N)[C@@H]2O)CC2O[C@](O)(CC(O)C(O)CCC(O)CC(O)CC(O)CC(=O)O[C@H]1C)CC(O)C2C(=O)O (stereo partly drawn) [Nystatine]	−0.6743
CC1COc2c(N3CCN(C)CC3)c(F)cc3c(=O)c(C(=O)O)cn1c23 (stereo not drawn) [Ofloxacin]	0.7623
CO[C@H]1C[C@H](O[C@H]2[C@H](C)[C@@H](O[C@@H]3O[C@H](C)C[C@H](N(C)C)[C@H]3O)[C@@H](C)C[C@@]3(CO3)C(=O)[C@H](C)[C@@H](O)[C@@H](C)[C@@H](C)OC(=O)[C@@H]2C)O[C@@H](C)[C@@H]1O [Oleandomycin phosphate]	0.5069
COc1ccc2[nH]c([S+]([O-])Cc3ncc(C)c(OC)c3C)nc2c1 (stereo not drawn) [Omeprazole]	−0.5848
Cc1nccn1CC1CCc2c(c3ccccc3n2C)C1=O (stereo not drawn) [Ondansetron Hydrochloride]	−0.6933
Cc1ncc([N+](=O)[O-])n1CC(O)CCl (stereo not drawn) [Ornidazole]	0.7824
Cc1ccccc1C(OCCN(C)C)c1ccccc1 (stereo not drawn) [Orphenadrine hydrochloride]	−0.3046
CCN(CC)CCc1nc(-c2ccccc2)no1.O=C(O)CC(O)(CC(=O)O)C(=O)O [Oxalamine citrate salt]	−1.3452
CN1CCCN=C1/C=C/c1cccc(O)c1.O=C(O)c1cc2ccccc2c(Cc2c(O)c(C(=O)O)cc3ccccc23)c1O [Oxantel pamoate]	1.422
O=C(O)CCc1nc(-c2ccccc2)c(-c2ccccc2)o1 [Oxaprozin]	−1.009
CN(C(=O)CN(CCO)CC(=O)N(C)C(C)(C)Cc1ccccc1)C(C)(C)Cc1ccccc1 [Oxethazaine]	−0.9515
CCn1cc(C(=O)O)c(=O)c2cc3c(cc21)OCO3 [Oxolinic acid]	−1.0488
C=CCOc1ccccc1OCC(O)CNC(C)C (stereo not drawn) [Oxprenolol hydrochloride]	−0.2057
COc1ccc(C(=O)c2ccccc2)c(O)c1 [Oxybenzone]	−1.1732
CCN(CC)CC#CCOC(=O)C(O)(c1ccccc1)C1CCCCC1 (stereo not drawn) [Oxybutynin chloride]	−1.0993
Cc1cc(C(C)(C)C)c(O)c(C)c1CC1=NCCN1 [Oxymetazoline hydrochloride]	0.1199
CCCCC1C(=O)N(c2ccccc2)N(c2ccc(O)cc2)C1=O (stereo not drawn) [Oxyphenbutazone]	−1.1165
CN(C)[C@@H]1C(O)=C(C(N)=O)C(=O)[C@@]2(O)C(O)=C3C(=O)c4c(O)cccc4[C@@](C)(O)[C@H]3[C@H](O)[C@@H]12 [Oxytetracycline dihydrate]	1.185
O=C(O)/C=C/c1ccc(Cn2ccnc2)cc1 [Ozagrel hydrochloride]	−0.6787
CC(=O)O[C@H]1C(=O)[C@@]2(C)[C@H]([C@H](OC(=O)c3ccccc3)[C@]3(O)C[C@H](OC(=O)[C@H](O)[C@@H](NC(=O)c4ccccc4)c4ccccc4)C(C)=C1C3(C)C)[C@]1(OC(C)=O)CO[C@@H]1C[C@@H]2O [Paclitaxel]	48.9183
COc1cc2c(cc1OC)-c1cc3ccc(OC)c(OC)c3c[n+]1CC2 [Palmatine chloride]	6.905
CC(=O)O[C@H]1C[C@@H]2CC[C@@H]3[C@H](CC[C@@]4(C)[C@H]3C[C@H]([N+]3(C)CCCCC3)[C@@H]4OC(C)=O)[C@@]2(C)C[C@@H]1[N+]1(C)CCCCC1 [Pancuronium bromide]	0.2708

Structure (SMILES)	Z-score
CC(C)(CO)[C@@H](O)C(=O)NCCCO [Panthenol (D)]	−0.069
CC(C)(CO)[C@@H](O)C(=O)NCCC(=O)O [Pantothenic acid calcium salt monohydrate]	−1.5008
COc1ccc(Cc2nccc3cc(OC)c(OC)cc23)cc1OC [Papaverine hydrochloride]	9.542
CCCCc1ccc2[nH]c(NC(=O)OC)nc2c1 [Parbendazole]	39.1106
C#CCN(C)Cc1ccccc1 [Pargyline hydrochloride]	−0.735
NC[C@@H]1O[C@H](O[C@H]2[C@@H](O)[C@H](O[C@@H]3[C@@H](O)[C@H](N)C[C@H](N)[C@H]3O[C@H]3O[C@H](CO)[C@@H](O)[C@H](O)[C@H]3N)O[C@@H]2CO)[C@H](N)[C@@H](O)[C@@H]1O [Paromomycin sulfate]	−0.0138
Fc1ccc([C@@H]2CCNC[C@H]2COc2ccc3c(c2)OCO3)cc1 [Paroxetine Hydrochloride]	−0.9182
CN1C(C)(C)CCCC1(C)C [Pempidine tartrate]	−0.8069
CC(C)(C)NC[C@H](O)COc1ccccc1C1CCCC1 [Penbutolol sulfate]	−0.627
N=C(N)c1ccc(OCCCCCOc2ccc(C(=N)N)cc2)cc1 [Pentamidine isethionate]	14.9126
O=C(O)CN(CCN(CC(=O)O)CC(=O)O)CCN(CC(=O)O)CC(=O)O [Pentetic acid]	0.9077
C[N+]1(CCCCC[N+]2(C)CCCC2)CCCC1.O=C([O-])C(O)C(O)C(=O)O.O=C([O-])C(O)C(O)C(=O)O [Pentolinium bitartrate]	−0.9629
CC(=O)CCCCn1c(=O)c2c(ncn2C)n(C)c1=O [Pentoxifylline]	−1.1547
C1CCc2nnnn2CC1 [Pentylenetetrazole]	0.6653
CC(C)CC(=O)N[C@H](C(=O)N[C@H](C(=O)N[C@@H](CC(C)C)[C@@H](O)CC(=O)N[C@@H](C)C(=O)N[C@@H](CC(C)C)[C@@H](O)CC(=O)O)C(C)C)C(C)C [Pepstatin A] (Isovaleryl-VV[Sta]A[Sta]-OH)	1.261
CCCN1C[C@H](CSC)C[C@@H]2c3cccc4[nH]cc(c34)C[C@H]21 [Pergolide mesylate]	−0.3289
OCCN1CCN(CCCN2c3ccccc3Sc3ccc(Cl)cc32)CC1 [Perphenazine]	−1.5218
CCOc1ccc(NC(C)=O)cc1 [Phenacetin]	0.5
Nc1ccc(/N=N/c2ccccc2)c(N)n1 [Phenazopyridine hydrochloride]	−0.2483
NNCCc1ccccc1 [Phenelzine sulfate]	0.6672
CC(Oc1ccccc1)C(=O)N[C@@H]1C(=O)N2[C@@H]1SC(C)(C)[C@@H]2C(=O)O (stereo partly drawn) [Phenethicillin potassium salt]	−0.0851
[H]/N=C(/N)N/C(=N/[H])NCCc1ccccc1 [Phenformin hydrochloride]	−0.2777
O=C1c2ccccc2C(=O)C1c1ccccc1 [Phenindione]	0.2654
CN(C)CCC(c1ccccc1)c1ccccn1 (stereo not drawn) [Pheniramine maleate]	0.3153
